Data from patent publication EP0068669A1, “Secondary phenylethanol amines, processes for their preparation and their pharmaceutical application” (priority 1981, dated 1983).

What was measured:
Format in all cases: in vivo
[1] = system: Female CFLP mice; experiment: Effect on energy expenditure and food intake of mice; conditions: 19.5-26.3 mg/kg p.o. (per compound, see Dose column); for Mean Food Intake: percentage of mean food intake of mice dosed with water, over 21 hours after a single oral dose; for Mean Energy Expenditure (0-3 h) / Mean Energy Expenditure (0-21 h): percentage of mean rate of energy expenditure of mice dosed with water, single oral dose, 12 mice; for Mean Energy Expenditure (0-3 h): 0-3 h after dosing; for Mean Energy Expenditure (0-21 h): 0-21 h after dosing
Method: The compounds were dissolved in water by addition of one mole of hydrochloric acid per mole of compound and these solutions were administered orally to each of 12 mice. A further 12 mice were dosed orally with water. The mice were placed in boxes through which air was drawn and the oxygen content of the air leaving the boxes was measured. The energy expenditure of the mice was calculated for 21 hours after dosing from the volume of air leaving the boxes and its oxygen content, following the principles described by J.B. de V. Weir, J. Ph^ysiol. (London) 109, 1-9, (1949). The food intake of the mice was measured over this same period of 21 hours. The results are expressed as a percentage of the mean food intake or rate of energy expenditure of the mice dosed with water.

[2] = system: Female CFLP mice; experiment: Hypoglycaemic activity, subcutaneous glucose load in fasted mice; conditions: oral dose 1.0-12.5 μmol/kg (per compound, see Dose column), 30 minutes before glucose 1 g/kg subcutaneously; area over 2 hours compared with control mice given water; mice fasted 24 hours
Method: Female CFLP mice, weighing approximately 25 g, were fasted for 24 hours prior to the study. The compounds under study were administered orally as an aqueous solution to each of 8 mice. 30 minutes later a blood sample (20 µℓ) was obtained from the tail for the analysis of blood glucose. Immediately after taking this blood sample, glucose (1 g/kg body weight) was administered subcutaneously to each mouse. 8 mice were given water as a control. Blood samples were then obtained from each mouse at 30-minute intervals for 120 minutes.
Compounds that produced a significant (P<0.05) reduction of blood glucose, compared with control mice given water, at any time interval , were considered active. The area under the blood glucose curve over the 2 hour period after the administration of the glucose was calculated for each compound and compared with the value for control animals.

[3] = system: Male CFLP mice; experiment: Platelet aggregation inhibition activity, response to intravenous collagen; conditions: oral dose two hours before intravenous collagen 400 µg/kg; blood platelet concentration 30 sec after collagen; Aspirin 600(108), Example 8 2.5 (1) µmol(mg)/kg p.o.
Method: Male CFLP mice (ca 20 g, n=8) were dosed orally with compound or vehicle (controls) after an overnight fast. Two hours later each mouse received an intravenous dose of collagen (400 µg/kg, pH 6-6.6). Exactly 30 sec after injection of collagen, each mouse was placed in a chamber of C02 until respiration ceased. […] Each concentration was expressed as a per cent of that obtained in a tail blood sample taken immediately before injection of collagen.

| Structure (SMILES) | Mean Food Intake [1] [percentage] | Mean Energy Expenditure (0-3 h) [1] [percentage] | Mean Energy Expenditure (0-21 h) [1] [percentage] | % Reduction in area under Blood glucose curve [2] [%] | % Inhibition of response to collagen [3] |
| --- | --- | --- | --- | --- | --- |
| CC(=O)Nc1ccc(CC(C)NCC(O)c2cccc(C(F)(F)F)c2)cc1 (centres unmarked) [Example 4, N-(2-(4-Acetylaminophenyl)-1-methylethyl)-2-hydroxy-2-(3-trifluoromethylphenyl)ethanamine] | 72 | 151 | 115 | 15.9 |  |
| CCOC(=O)Nc1ccc(CC(C)NCC(O)c2cccc(C(F)(F)F)c2)cc1 (centres unmarked) [Example 3, N-[2-(4-Ethoxycarbonylaminophenyl)-1-methylethyl]-2-hydroxy-2-(3-trifluoromethylphenyl)ethanamine] | 76 | 139 | 121 |  |  |
| CC(Cc1ccc(NS(C)(=O)=O)cc1)NCC(O)c1ccccc1 (centres unmarked) [Example 1, N-(2-(4-Methylsulphonylaminophenyl)-1-methylethyl]-2-hydroxy-2-phenylethanamine] | 80 | 130 | 95 | 24.7 |  |
| CC(Cc1ccc(NS(C)(=O)=O)cc1)NCC(O)c1cccc(C(F)(F)F)c1 (centres unmarked) [Example 2, N-[2-(4-Methylsulphonylaminophenyl)-1-methylethyl]-2-hydroxy-2-(3-trifluoromethylphenyl)ethanamine] | 99 | 142 | 102 |  |  |
| CCOC(=O)C1CCN(c2ccc(CC(C)NCC(O)c3cccc(C(F)(F)F)c3)cc2)CC1 (centres unmarked) [Example 13, N-[2-(4-(1-(4-Carboethoxy)piperidyl)phenyl)-1-methylethyl]-2-hydroxy-2-(3-trifluoromethylphenyl)ethanamine] | 95 | 121 | 103 |  |  |
| CC(Cc1ccc([N+](=O)[O-])cc1)NCC(O)c1cccc(C(F)(F)F)c1 (centres unmarked) [Example 9, N-[2-(4-Nitrophenyl)-1-methylethyl]-2-hydroxy-2-(3-trifluoromethylphenyl) ethanamine] | 94 | 112 | 115 | 13.2 |  |
| CC(Cc1ccc(N(C)C)cc1)NCC(O)c1cccc(C(F)(F)F)c1 (centres unmarked) [Example 10, N-[2-(4-Dimethylaminophenyl]-1-methylethyl]-2-hydroxy-2-(3-trifluoromethylphenvl)ethanamine] | 70 | 169 | 125 |  |  |
| CC(Cc1ccc(N2CCOCC2)cc1)NCC(O)c1cccc(C(F)(F)F)c1 (centres unmarked) [Example 12, N-[2-(4-(4-Morpholino)phenyl)-1-methylethyl]-2-hydroxy-2-(3-trifluoromethylphenyl)ethanamine] | 72 | 143 | 121 |  |  |
| COC(=O)CNc1ccc(CC(C)NCC(O)c2cccc(C(F)(F)F)c2)cc1 (centres unmarked) [Example 8, N-[2-(4-Methoxycarbonylmethylaminophenyl)-1-methylethyl] -2-hydroxy-2-(3-trifluoromethylphenyl) ethanamine] |  | 140 |  | 36.2 | 42 p<0.02% |
| CNC(=O)C1CCN(c2ccc(CC(C)NCC(O)c3cccc(C(F)(F)F)c3)cc2)CC1 (centres unmarked) [Example 14, N-[2-(4-(1-(4-N'-Methylcarboxamido)piperidyl)phenyl)-1-methylethyl]-2-hydroxy-2-(3-trifluoromethylphenyl)ethanamine] | 106 | 118 | 102 |  |  |
| CC(=O)Oc1ccccc1C(=O)O [Aspirin, reference compound] |  |  |  |  | 38 p<0.05% |
| CNC(=O)Nc1ccc(CC(C)NCC(O)c2cccc(C(F)(F)F)c2)cc1 (centres unmarked) [Example 5, N-[2-(4-Methylaminocarbonylaminophenyl)-1-methylethyl]-2-hydroy-2-(3-trifluoromethylphenyl)ethanamine] | 72 | 159 | 121 |  |  |
| CC(Cc1ccc(N2CCCC2)cc1)NCC(O)c1cccc(C(F)(F)F)c1 (centres unmarked) [Example 11, N-[2-(4-(1-Pyrrolidyl)phenyl)-1-methylethyl] -2-hydroxy-2-(3-trifluoromethylphenyl)ethanamine] | 95 | 151 | 112 |  |  |
| CC(Cc1ccc(N)cc1)NCC(O)c1cccc(C(F)(F)F)c1 (centres unmarked) [Example 7, N-[2-(4-Aminophenyl)-1-methylethyl]-2-hydroxy-2-(3-trifluoromethylphenyl) ethanamine] | 84 | 182 | 118 | 38.0 |  |
| CCNc1ccc(CC(C)NCC(O)c2cccc(C(F)(F)F)c2)cc1 (centres unmarked) [Example 6, N-[2-(4-Ethylaminophenyl)-1-methylethyl]-2-hydroxy-2-(3-trifluoromethvlphenvl)ethanamine] | 108 | 169 | 128 |  |  |
